Experimental data published in patent US20100216758A1, “Pyridone Compounds” (priority 2005, published 2010).

biological target: T1, human MCH-1R (Homo sapiens, UniProt Q99705); assay: MCH binding inhibition test; conditions: membrane samples from MCH-1R expressing CHO-K1 cells, 50 pM [125I]MCH, 25° C., one hour, pH 7.4; read-out: IC50 (50% inhibition concentration of test compound to the specific [125I]MCH binding)
T1 construct: expressed in transfected cells; host or cells: CHO-K1 (American Type Culture Collection), vector pEF/myc/cyto (Invitrogen)
Method: A human MCH-1R encoding cDNA sequence [FEBS Letters, Vol. 398, 253 (1996); Biochimica et Biophisica Acta, Vol. 1401, 216 (1998)] was cloned to a plasmid vector pEF/myc/cyto (Invitrogen Corporation). The obtained expression vector was transfected to host cells CHO-K1 (American Type Culture Collection) using Lipofectamine Plus Reagent (Life Technology Inc.) to provide MCH-1R expression cells.
Membrane samples prepared from the MCH-1R expression cells were incubated with each test compound and 50 pM of [^125I]MCH (NEN Co.), in an assay buffer (50 mM Tris buffer comprising 10 mM magnesium chloride, 2 mM ethylenediamine tetraacetate, 0.01% bacitracin and 0.2% bovine serum albumin; pH 7.4) at 25° C. for an hour, followed by filtration through a glass filter GF/C (Wattman Co.). After washing the glass filter with 50 mM Tris buffer (pH 7.4) comprising 10 mM magnesium chloride, 2 mM ethylenediamine tetraacetate and 0.04% Tween-20, the radioactive activity on the glass filter was measured. The non-specific binding was measured in the presence of 1 μM human MCH and 50% inhibition concentration (IC50 value) of each test compound to the specific [^125I]MCH binding was determined.

T1 sequence (Q99705 whole entry): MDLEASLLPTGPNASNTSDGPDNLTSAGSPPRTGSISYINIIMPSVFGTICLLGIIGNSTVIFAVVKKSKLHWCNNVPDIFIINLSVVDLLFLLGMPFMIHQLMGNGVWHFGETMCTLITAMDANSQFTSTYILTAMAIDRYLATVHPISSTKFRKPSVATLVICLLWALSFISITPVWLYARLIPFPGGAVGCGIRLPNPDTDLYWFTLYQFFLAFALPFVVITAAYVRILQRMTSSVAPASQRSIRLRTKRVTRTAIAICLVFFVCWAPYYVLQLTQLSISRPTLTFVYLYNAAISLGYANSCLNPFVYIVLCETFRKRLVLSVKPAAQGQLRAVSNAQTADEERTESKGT

IC50 [nM]	SMILES
5.9	CCN(CC)Cc1ccc(CCn2ccc(OCc3ccc(F)cc3)cc2=O)cc1 [Example 2, 1-(2-{4-[(Diethylamino)methyl]phenyl}ethyl)-4-[(4-fluorobenzyl)oxy]pyridin-2(1H)one]
7.3	CCN(CC)Cc1ccc(CCn2ccc(OCc3ccc(Cl)cn3)cc2=O)cc1 [Example 14, 4-[(5-Chloropyridin-2-yl)methoxy]-1-(2-{4-[(diethylamino)methyl]phenyl}ethyl)pyridin-2(1H)-one]
5.8	O=c1cc(OCc2ccc(Cl)cn2)ccn1CCc1ccc(CN2CCCC2)cc1 [Example 26, 4-[(5-Chloropyridin-2-yl)methoxy]-1-(2-[4-(pyrrolidin-1-ylmethyl)phenyl]ethyl}pyridin-2(1H)-one]
2.6	CCCNCc1ccc(CCn2ccc(OCc3ccc(F)cc3)cc2=O)cc1 [Example 72, 4-[(4-Fluorobenzyl)oxy]-1-(2-{4-[(propylamino)methyl]phenyl}ethyl)pyridin-2(1H)-one]

SMILES	IC50 [nM]
O=c1cc(OCc2ccc(Cl)cc2)ccn1CCc1ccc(CN2C3CCC2CC3)cc1 [Example 41, 1-{2-[4-(7-Azabicyclo[2.2.1]hept-7-ylmethyl)phenyl]ethyl}-4-[(4-chlorobenzyl)oxy]pyridin-2(1H)-one]	3
